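Exposure lasted 48 hours, with cells grown in 96-well plates and compounds tested at five concentrations. GI50: concentration for 50% inhibition of growth. Definition used: TGI = concentration required for complete inhibition of growth.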
Key:
Experiment in all cases: DTP human tumour cell line panel, 48 h
A549 NSCLC = tested on: A549 NSCLC
MCF7 breast = tested on: MCF7 breast
UO-31 renal = tested on: UO-31 renal
SNB-75 CNS = tested on: SNB-75 CNS
ACHN renal = tested on: ACHN renal
SR leukemia = tested on: SR leukemia
SF-539 CNS = tested on: SF-539 CNS
MOLT-4 leukemia = tested on: MOLT-4 leukemia
HL-60(TB) leukemia = tested on: HL-60(TB) leukemia
NCI-H460 lung = tested on: NCI-H460 lung
TK-10 renal = tested on: TK-10 renal
BT-549 breast = tested on: BT-549 breast
HCT-116 colon = tested on: HCT-116 colon
HOP-62 NSCLC = tested on: HOP-62 NSCLC
SK-MEL-28 melanoma = tested on: SK-MEL-28 melanoma
SNB-19 CNS = tested on: SNB-19 CNS
786-0 renal = tested on: 786-0 renal
SK-MEL-5 melanoma = tested on: SK-MEL-5 melanoma
K-562 leukemia = tested on: K-562 leukemia
OVCAR-8 ovarian = tested on: OVCAR-8 ovarian
DU-145 prostate = tested on: DU-145 prostate
CAKI-1 renal = tested on: CAKI-1 renal
OVCAR-5 ovarian = tested on: OVCAR-5 ovarian
NCI-H23 lung = tested on: NCI-H23 lung
LOX IMVI melanoma = tested on: LOX IMVI melanoma
UACC-62 melanoma = tested on: UACC-62 melanoma
CCRF-CEM leukemia = tested on: CCRF-CEM leukemia
RXF 393 renal = tested on: RXF 393 renal
HCC-2998 colon = tested on: HCC-2998 colon
HT29 colon = tested on: HT29 colon
A498 renal = tested on: A498 renal
IGROV1 ovarian = tested on: IGROV1 ovarian
NCI/ADR-RES ovarian = tested on: NCI/ADR-RES ovarian
MALME-3M melanoma = tested on: MALME-3M melanoma
UACC-257 melanoma = tested on: UACC-257 melanoma
HCT-15 colon = tested on: HCT-15 colon
SF-268 CNS = tested on: SF-268 CNS
RPMI-8226 leukemia = tested on: RPMI-8226 leukemia
MDA-MB-435 = tested on: MDA-MB-435
SN12C renal = tested on: SN12C renal
OVCAR-3 ovarian = tested on: OVCAR-3 ovarian
HOP-92 NSCLC = tested on: HOP-92 NSCLC
SK-MEL-2 melanoma = tested on: SK-MEL-2 melanoma
NCI-H226 lung = tested on: NCI-H226 lung
MDA-MB-231 breast = tested on: MDA-MB-231 breast
SW-620 colon = tested on: SW-620 colon
COLO 205 colon = tested on: COLO 205 colon
PC-3 prostate = tested on: PC-3 prostate
OVCAR-4 ovarian = tested on: OVCAR-4 ovarian
EKVX NSCLC = tested on: EKVX NSCLC
HS 578T breast = tested on: HS 578T breast
U251 CNS = tested on: U251 CNS
SK-OV-3 ovarian = tested on: SK-OV-3 ovarian
KM12 colon = tested on: KM12 colon
M14 melanoma = tested on: M14 melanoma
NCI-H522 lung = tested on: NCI-H522 lung
SF-295 CNS = tested on: SF-295 CNS
T-47D breast = tested on: T-47D breast

Molecule O=c1[nH]c(=O)n(C2C[C@@H](O)[C@@H](CO)O2)cc1F (stereo not given in full) has a TGI (A549 NSCLC) greater than 100000 nM, a GI50 (MCF7 breast) of less than 10 nM and a TGI (MCF7 breast) greater than 100000 nM. For the same molecule, the TGI (UO-31 renal) was 30300 nM, the TGI (SNB-75 CNS) was greater than 21400 nM and the TGI (ACHN renal) was greater than 100000 nM. It also gave a GI50 (SR leukemia) of 184 nM, a TGI (SR leukemia) greater than 38100 nM and a TGI (SF-539 CNS) greater than 60800 nM. For the same molecule, the GI50 (MOLT-4 leukemia) was 37.5 nM, the GI50 (HL-60(TB) leukemia) was 482 nM and the TGI (HL-60(TB) leukemia) was greater than 100000 nM. It also gave a TGI (NCI-H460 lung) of 9800 nM, a TGI (TK-10 renal) greater than 100000 nM and a TGI (BT-549 breast) greater than 100000 nM. The GI50 (HCT-116 colon) was 28.9 nM, the TGI (HCT-116 colon) was greater than 100000 nM and the TGI (HOP-62 NSCLC) was 956 nM. The GI50 (SK-MEL-28 melanoma) was 433 nM, the TGI (SK-MEL-28 melanoma) was greater than 100000 nM and the TGI (SNB-19 CNS) was greater than 100000 nM. It also gave a TGI (786-0 renal) greater than 100000 nM, a TGI (SK-MEL-5 melanoma) of 385 nM and a GI50 (K-562 leukemia) of 156 nM. The TGI (K-562 leukemia) was greater than 100000 nM, the TGI (OVCAR-8 ovarian) was greater than 100000 nM and the TGI (DU-145 prostate) was greater than 100000 nM. For the same molecule, the TGI (CAKI-1 renal) was greater than 100000 nM, the GI50 (OVCAR-5 ovarian) was 8400 nM and the TGI (OVCAR-5 ovarian) was greater than 100000 nM. It also gave a TGI (NCI-H23 lung) greater than 100000 nM, a TGI (LOX IMVI melanoma) greater than 100000 nM and a TGI (UACC-62 melanoma) greater than 100000 nM. For the same molecule, the GI50 (CCRF-CEM leukemia) was 19.8 nM, the TGI (CCRF-CEM leukemia) was greater than 100000 nM and the TGI (RXF 393 renal) was 13300 nM. The TGI (HCC-2998 colon) was 4450 nM, the TGI (HT29 colon) was greater than 100000 nM and the TGI (A498 renal) was 7480 nM.
Molecule O=[N+]([O-])c1ccc(NC(c2ccccc2)c2ccc3cccnc3c2O)cc1 (stereo not given) has a GI50 (A549 NSCLC) of 878 nM, a TGI (A549 NSCLC) greater than 100000 nM and a GI50 (IGROV1 ovarian) of 388 nM. It also gave a TGI (IGROV1 ovarian) greater than 51500 nM, a GI50 (NCI/ADR-RES ovarian) of 288 nM and a TGI (NCI/ADR-RES ovarian) greater than 23400 nM. For the same molecule, the GI50 (MALME-3M melanoma) was 826 nM, the TGI (MALME-3M melanoma) was greater than 100000 nM and the GI50 (MCF7 breast) was 335 nM. For the same molecule, the TGI (MCF7 breast) was greater than 100000 nM, the GI50 (UACC-257 melanoma) was 548 nM and the TGI (UACC-257 melanoma) was 6670 nM. It also gave a GI50 (HCT-15 colon) of 326 nM, a TGI (HCT-15 colon) greater than 100000 nM and a GI50 (UO-31 renal) of 297 nM. It also gave a TGI (UO-31 renal) greater than 31400 nM, a GI50 (SNB-75 CNS) of 1630 nM and a TGI (SNB-75 CNS) greater than 100000 nM. The GI50 (ACHN renal) was 351 nM, the TGI (ACHN renal) was greater than 89900 nM and the GI50 (SF-268 CNS) was 378 nM. It also gave a TGI (SF-268 CNS) greater than 100000 nM, a GI50 (RPMI-8226 leukemia) of 313 nM and a TGI (RPMI-8226 leukemia) greater than 100000 nM. The GI50 (MDA-MB-435) was 422 nM, the TGI (MDA-MB-435) was greater than 100000 nM and the GI50 (SF-539 CNS) was 499 nM. For the same molecule, the TGI (SF-539 CNS) was greater than 31900 nM, the GI50 (SN12C renal) was 935 nM and the TGI (SN12C renal) was greater than 100000 nM. For the same molecule, the GI50 (MOLT-4 leukemia) was 344 nM, the TGI (MOLT-4 leukemia) was greater than 100000 nM and the GI50 (OVCAR-3 ovarian) was 450 nM. For the same molecule, the TGI (OVCAR-3 ovarian) was greater than 100000 nM, the GI50 (HL-60(TB) leukemia) was 334 nM and the TGI (HL-60(TB) leukemia) was 1470 nM. For the same molecule, the GI50 (NCI-H460 lung) was 253 nM, the TGI (NCI-H460 lung) was 1390 nM and the GI50 (HOP-92 NSCLC) was 234 nM. For the same molecule, the TGI (HOP-92 NSCLC) was greater than 100000 nM, the GI50 (TK-10 renal) was 932 nM and the TGI (TK-10 renal) was greater than 100000 nM. For the same molecule, the GI50 (BT-549 breast) was 601 nM, the TGI (BT-549 breast) was 43200 nM and the GI50 (HCT-116 colon) was 310 nM. The TGI (HCT-116 colon) was greater than 55900 nM, the GI50 (SK-MEL-2 melanoma) was 943 nM and the TGI (SK-MEL-2 melanoma) was greater than 100000 nM. For the same molecule, the GI50 (NCI-H226 lung) was 505 nM, the TGI (NCI-H226 lung) was 9190 nM and the GI50 (HOP-62 NSCLC) was 537 nM. The TGI (HOP-62 NSCLC) was greater than 100000 nM, the GI50 (SK-MEL-28 melanoma) was 697 nM and the TGI (SK-MEL-28 melanoma) was greater than 100000 nM. It also gave a GI50 (MDA-MB-231 breast) of 696 nM, a TGI (MDA-MB-231 breast) greater than 100000 nM and a GI50 (SW-620 colon) of 389 nM. The TGI (SW-620 colon) was greater than 100000 nM, the GI50 (SNB-19 CNS) was 551 nM and the TGI (SNB-19 CNS) was greater than 100000 nM. For the same molecule, the GI50 (786-0 renal) was 363 nM, the GI50 (SK-MEL-5 melanoma) was 400 nM and the TGI (SK-MEL-5 melanoma) was 3120 nM. For the same molecule, the GI50 (K-562 leukemia) was 376 nM, the TGI (K-562 leukemia) was greater than 100000 nM and the GI50 (OVCAR-8 ovarian) was 435 nM. It also gave a TGI (OVCAR-8 ovarian) greater than 100000 nM, a GI50 (DU-145 prostate) of 483 nM and a TGI (DU-145 prostate) greater than 100000 nM. The GI50 (COLO 205 colon) was 448 nM, the TGI (COLO 205 colon) was greater than 100000 nM and the GI50 (PC-3 prostate) was 586 nM. The TGI (PC-3 prostate) was greater than 100000 nM, the GI50 (CAKI-1 renal) was 312 nM and the GI50 (OVCAR-4 ovarian) was 331 nM. The TGI (OVCAR-4 ovarian) was greater than 100000 nM, the GI50 (OVCAR-5 ovarian) was 1770 nM and the TGI (OVCAR-5 ovarian) was greater than 100000 nM. For the same molecule, the GI50 (EKVX NSCLC) was 393 nM, the TGI (EKVX NSCLC) was greater than 100000 nM and the GI50 (NCI-H23 lung) was 414 nM. For the same molecule, the TGI (NCI-H23 lung) was greater than 100000 nM, the GI50 (HS 578T breast) was 520 nM and the TGI (HS 578T breast) was greater than 100000 nM. For the same molecule, the GI50 (LOX IMVI melanoma) was 293 nM, the GI50 (UACC-62 melanoma) was 510 nM and the TGI (UACC-62 melanoma) was greater than 100000 nM. For the same molecule, the GI50 (CCRF-CEM leukemia) was 246 nM, the TGI (CCRF-CEM leukemia) was 7970 nM and the GI50 (U251 CNS) was 418 nM. It also gave a TGI (U251 CNS) greater than 100000 nM, a GI50 (RXF 393 renal) of 698 nM and a TGI (RXF 393 renal) greater than 100000 nM. The GI50 (HCC-2998 colon) was 418 nM, the TGI (HCC-2998 colon) was greater than 100000 nM and the GI50 (HT29 colon) was 487 nM. It also gave a TGI (HT29 colon) greater than 100000 nM, a GI50 (SK-OV-3 ovarian) of 500 nM and a TGI (SK-OV-3 ovarian) greater than 100000 nM. The GI50 (KM12 colon) was 449 nM, the TGI (KM12 colon) was greater than 100000 nM and the GI50 (M14 melanoma) was 308 nM. For the same molecule, the TGI (M14 melanoma) was greater than 100000 nM, the GI50 (NCI-H522 lung) was 392 nM and the TGI (NCI-H522 lung) was greater than 100000 nM. For the same molecule, the GI50 (SF-295 CNS) was 314 nM, the TGI (SF-295 CNS) was greater than 100000 nM and the GI50 (T-47D breast) was 633 nM. The TGI (T-47D breast) was greater than 100000 nM, the GI50 (A498 renal) was 634 nM and the TGI (A498 renal) was 8130 nM.

From PubChem BioAssay (NCI)
